Data reported in publication PMC8878317, “Chemogenomics identifies acetyl-coenzyme A synthetase as a target for malaria treatment and prevention” (Cell Chemical Biology, 2022).

Test system: P. falciparum 3D7 parasites
Assay: Metabolomic profiling of compound-treated parasites (LC/MS);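 as to Metabolite data: 3-Phosphoglycerate: Log2 fold change in abundance versus untreated parasite controls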;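 as to Metabolite data: Myo-Inositol: Log2 fold change in abundance versus untreated parasite controls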;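 as to Metabolite data: N-Carbamoyl-L-Aspartate: Log2 fold change in abundance versus untreated parasite controls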;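 as to Metabolite data: Nicotinate: Log2 fold change in abundance versus untreated parasite controls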
Format: cell-based
Parameters: Metabolite data: dTMP / Metabolite data: GMP / Metabolite data: S-Adenosyl-L-Homocysteine / Metabolite data: 1_3-Bisphosphoglyceric acid: scale not given here
Summary of the method: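 Magnetically purified trophozoites (1×10^8 parasites/mL) recovered 1 h in RPMI 1640, incubated a further 2.5 h, quenched in 90% methanol with labeled aspartate. Extracts analysed by reverse-phase C18 LC with negative-mode Orbitrap MS; peak areas normalized to internal standards, blank-subtracted and averaged by condition.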

Compound: CCc1nc(N)nc(N)c1-c1ccc(Cl)cc1 [Pyrimethamine]
- Metabolite data: 1_3-Bisphosphoglyceric acid: 0
- Metabolite data: 2_3-Diphosphoglyceric acid: 0.1448
- Metabolite data: 3-Phosphoglycerate: 0.06527
- Metabolite data: 4-Aminobutyrate: 0.06366
- Metabolite data: 4-Phosphopantothenate: 0.159
- Metabolite data: 4-phosphopantetheine: 0
- Metabolite data: 5-aminopentanoic acid: 0
- Metabolite data: 5-phosphoribosyl-1-pyrophosphate: 0
- Metabolite data: 6-Phospho-D-Gluconate: 0.08879
- Metabolite data: ADP-D-Glucose: 0.2656
- Metabolite data: Acetyl-CoA: 0.1996
- Metabolite data: Acetyllysine: 0.2921
- Metabolite data: Aconitate: 0.4355
- Metabolite data: CDP: 0.1713
- Metabolite data: CDP-Ethanolamine: 1.312
- Metabolite data: CDP-choline: 0
- Metabolite data: CMP: 0.005842
- Metabolite data: CTP: -0.1699
- Metabolite data: Citrate/Isocitrate: -0.2585
- Metabolite data: Cyclic-AMP: 0.06421
- Metabolite data: Dihydroorotate: 1.359
- Metabolite data: FAD: 0.05439
- Metabolite data: FMN: -0.4759
- Metabolite data: Fructose-1,6-Bisphosphate: 0.2831
- Metabolite data: Fumarate: 0.3378
- Metabolite data: GDP: 0.005686
- Metabolite data: GMP: 0.1718
- Metabolite data: GTP: -0.6779
- Metabolite data: Glucose-1/6-Phosphate: 0.1953
- Metabolite data: Glutathione Disulfide: 0.3348
- Metabolite data: Hexose: 0
- Metabolite data: Hydroxyisocaproic acid: 0
- Metabolite data: Indole: -0.02333
- Metabolite data: Ketoleucine: 0
- Metabolite data: L-arginino-succinate: 0
- Metabolite data: Lactate: 0.8185
- Metabolite data: Malate: 0.5597
- Metabolite data: Myo-Inositol: 2.112
- Metabolite data: N-Acetyl-Glutamate: 0.1671
- Metabolite data: N-Acetyl-L-Alanine: 0.1511
- Metabolite data: N-Acetyl-L-Ornithine: 0.1555
- Metabolite data: N-Carbamoyl-L-Aspartate: 0.3085
- Metabolite data: NAD+: 0.008224
- Metabolite data: NADH: 4.9
- Metabolite data: NADP+: 0.03009
- Metabolite data: NADPH: 1.808
- Metabolite data: Nicotinate: 0.1972
- Metabolite data: Octulose 8/1-Phosphate: -0.1128
- Metabolite data: Orotate: 0.09092
- Metabolite data: PD: 0.177
- Metabolite data: PE: -0.01685
- Metabolite data: PEEK: 0
- Metabolite data: Phenol Red: 0
- Metabolite data: Pyroglutamic acid: 0.09576
- Metabolite data: S-Adenosyl-L-Homocysteine: 0.08183
- Metabolite data: S-methyl-5'-thioadenosine: 0.0579
- Metabolite data: SD: 0.04153
- Metabolite data: Sedoheptulose Bisphosphate: 0.1986
- Metabolite data: UDP: 0.2702
- Metabolite data: UDP-D-Glucose: 0.138
- Metabolite data: UDP-D-Glucuronate: 0.02668
- Metabolite data: UDP-N-Acetyl-Glucosamine: 0.1474
- Metabolite data: UMP: 0.1095
- Metabolite data: UTP: -0.3099
- Metabolite data: a-ketoglutarate: 0.2017
- Metabolite data: acetyl-aspartate: 0
- Metabolite data: arginine: 0
- Metabolite data: asparagine: 0
- Metabolite data: aspartate: 0
- Metabolite data: biotin: 0
- Metabolite data: chlorpropamide: 0
- Metabolite data: coenzyme A: 0
- Metabolite data: dAMP: -0.3497
- Metabolite data: dATP: 0.1703
- Metabolite data: dCDP: 0.2805
- Metabolite data: dCMP: 0.1423
- Metabolite data: dCTP: -0.258
- Metabolite data: dGDP/ADP: 0.2431
- Metabolite data: dGMP/AMP: -0.07108
- Metabolite data: dGTP/ATP: 0
- Metabolite data: dTDP: 0.3943
- Metabolite data: dTMP: 0.05289
- Metabolite data: dTTP: -0.1782
- Metabolite data: folate: 0
- Metabolite data: glucono-lactone: 0
- Metabolite data: glutamate: 0
- Metabolite data: glutamine: 0
- Metabolite data: glutathione: 0
- Metabolite data: histidine: 0
- Metabolite data: hydroxyproline/Aminolevulinate: 0
- Metabolite data: isoleucine: 0
- Metabolite data: leucine: 0
- Metabolite data: maleic acid: 0
- Metabolite data: methionine: 0
- Metabolite data: nicotinamide mononucleotide: 0
- Metabolite data: orotidine-5'-phosphate: 0

Compound: N#Cc1cc(NC(=O)[C@H]2c3ccccc3C(=O)N(CC(F)(F)F)[C@@H]2c2cccnc2)ccc1F [SJ733]
- Metabolite data: 1_3-Bisphosphoglyceric acid: 0
- Metabolite data: 2_3-Diphosphoglyceric acid: -1.405
- Metabolite data: 3-Phosphoglycerate: 0.1564
- Metabolite data: 4-Aminobutyrate: -0.6232
- Metabolite data: 4-Phosphopantothenate: -0.06384
- Metabolite data: 4-phosphopantetheine: 0
- Metabolite data: 5-aminopentanoic acid: 0
- Metabolite data: 5-phosphoribosyl-1-pyrophosphate: 0
- Metabolite data: 6-Phospho-D-Gluconate: -0.1307
- Metabolite data: ADP-D-Glucose: 0.2839
- Metabolite data: Acetyl-CoA: -0.6106
- Metabolite data: Acetyllysine: -2.328
- Metabolite data: Aconitate: 1.12
- Metabolite data: CDP: 0.04523
- Metabolite data: CDP-Ethanolamine: -0.09201
- Metabolite data: CDP-choline: 0
- Metabolite data: CMP: 1.401
- Metabolite data: CTP: -0.9536
- Metabolite data: Citrate/Isocitrate: 0.1284
- Metabolite data: Cyclic-AMP: -1.252
- Metabolite data: Dihydroorotate: -2.603
- Metabolite data: FAD: -1.458
- Metabolite data: FMN: -1.104
- Metabolite data: Fructose-1,6-Bisphosphate: -0.7765
- Metabolite data: Fumarate: 0.221
- Metabolite data: GDP: -2.218
- Metabolite data: GMP: -2.3136
- Metabolite data: GTP: -1.102
- Metabolite data: Glucose-1/6-Phosphate: -0.8546
- Metabolite data: Glutathione Disulfide: -0.003594
- Metabolite data: Hexose: 0
- Metabolite data: Hydroxyisocaproic acid: 0
- Metabolite data: Indole: 0.01538
- Metabolite data: Ketoleucine: 0
- Metabolite data: L-arginino-succinate: 0
- Metabolite data: Lactate: -1.557
- Metabolite data: Malate: 0.2276
- Metabolite data: Myo-Inositol: -4.078
- Metabolite data: N-Acetyl-Glutamate: -0.1913
- Metabolite data: N-Acetyl-L-Alanine: -1.649
- Metabolite data: N-Acetyl-L-Ornithine: -1.387
- Metabolite data: N-Carbamoyl-L-Aspartate: -4.081
- Metabolite data: NAD+: -0.3968
- Metabolite data: NADH: 0.5171
- Metabolite data: NADP+: -0.1788
- Metabolite data: NADPH: 3.012
- Metabolite data: Nicotinate: 0.6001
- Metabolite data: Octulose 8/1-Phosphate: -0.3837
- Metabolite data: Orotate: 0.7127
- Metabolite data: PD: -1.25
- Metabolite data: PE: -3.092
- Metabolite data: PEEK: -1.29
- Metabolite data: Phenol Red: 0
- Metabolite data: Pyroglutamic acid: -0.07146
- Metabolite data: S-Adenosyl-L-Homocysteine: -0.5514
- Metabolite data: S-methyl-5'-thioadenosine: -0.2796
- Metabolite data: SD: -3.659
- Metabolite data: Sedoheptulose Bisphosphate: -0.9288
- Metabolite data: UDP: -0.7526
- Metabolite data: UDP-D-Glucose: -0.1564
- Metabolite data: UDP-D-Glucuronate: -0.198
- Metabolite data: UDP-N-Acetyl-Glucosamine: 0.08301
- Metabolite data: UMP: -0.4316
- Metabolite data: UTP: -1.732
- Metabolite data: a-ketoglutarate: 0.4286
- Metabolite data: acetyl-aspartate: 0
- Metabolite data: arginine: 0
- Metabolite data: asparagine: 0
- Metabolite data: aspartate: 0
- Metabolite data: biotin: 0
- Metabolite data: chlorpropamide: 0
- Metabolite data: coenzyme A: 0
- Metabolite data: dAMP: 2.428
- Metabolite data: dATP: -0.7133
- Metabolite data: dCDP: 1.868
- Metabolite data: dCMP: 1.752
- Metabolite data: dCTP: 0.5805
- Metabolite data: dGDP/ADP: -2.35
- Metabolite data: dGMP/AMP: -1.067
- Metabolite data: dGTP/ATP: 0
- Metabolite data: dTDP: 2.593
- Metabolite data: dTMP: 4.089
- Metabolite data: dTTP: 1.546
- Metabolite data: folate: 0
- Metabolite data: glucono-lactone: 0
- Metabolite data: glutamate: 0
- Metabolite data: glutamine: 0
- Metabolite data: glutathione: 0
- Metabolite data: histidine: 0
- Metabolite data: hydroxyproline/Aminolevulinate: 0
- Metabolite data: isoleucine: 0
- Metabolite data: leucine: 0
- Metabolite data: maleic acid: 0
- Metabolite data: methionine: 0
- Metabolite data: nicotinamide mononucleotide: 0
- Metabolite data: orotidine-5'-phosphate: 0
